Results on 20 compounds are retold here after patent US9782412B2, “Preventive and/or therapeutic agent of immune disease” (TAIHO PHARMACEUTICAL CO., LTD., priority 2015, dated 2017).

SMILES strings stand for the structures. Where only a bound is given, the exact number is not on record here.

T1 sequence (Q06187 whole entry): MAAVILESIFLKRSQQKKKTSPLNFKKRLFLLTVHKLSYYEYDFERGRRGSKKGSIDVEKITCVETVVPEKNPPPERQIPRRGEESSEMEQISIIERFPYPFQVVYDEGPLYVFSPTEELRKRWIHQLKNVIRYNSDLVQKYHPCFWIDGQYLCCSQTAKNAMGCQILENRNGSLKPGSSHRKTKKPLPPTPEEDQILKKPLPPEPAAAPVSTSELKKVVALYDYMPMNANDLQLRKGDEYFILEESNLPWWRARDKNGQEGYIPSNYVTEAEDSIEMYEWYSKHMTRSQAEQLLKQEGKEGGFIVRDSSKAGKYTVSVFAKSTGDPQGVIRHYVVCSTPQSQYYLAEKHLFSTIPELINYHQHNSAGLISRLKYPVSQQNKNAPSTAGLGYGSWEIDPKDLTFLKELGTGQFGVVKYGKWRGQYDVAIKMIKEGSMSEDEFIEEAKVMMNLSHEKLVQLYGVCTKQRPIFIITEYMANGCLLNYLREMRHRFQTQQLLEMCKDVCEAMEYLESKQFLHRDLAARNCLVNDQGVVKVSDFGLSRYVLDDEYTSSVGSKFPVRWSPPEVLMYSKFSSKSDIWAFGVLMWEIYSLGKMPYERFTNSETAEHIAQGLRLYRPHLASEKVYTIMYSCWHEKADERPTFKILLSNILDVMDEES

The first assay has as its target T1, recombinant human BTK protein (Homo sapiens, UniProt Q06187).
T1 construct: purchased Carna Biosciences, Inc
Description: Measurement of BTK inhibitory activity (in vitro). It counts as biochemical. To be noted: ATP 45 μM, 40 minutes at 25° C. The source says: Regarding the setting of the conditions for a method for measuring the inhibitory activity of a compound against BTK kinase activity in vitro, it is described in the consumable reagent supplies price list for LabChip (registered trademark) series of PerkinElmer, Inc. that FL-PEPTIDE 2 corresponds to a substrate peptide for the measurement of BTK kinase activity. Therefore, FL-PEPTIDE 2 was used as a substrate. The purified recombinant human BTK protein used in the test was purchased from Carna Biosciences, Inc.
Regarding the measurement of the inhibitory activity of the compounds, firstly, the compounds of the present invention were diluted stepwise with DMSO. Subsequently, BTK protein, a substrate peptide (final concentration was 1 μM), magnesium chloride (final concentration was 10 mM), ATP (final concentration was 45 μM), and a DMSO solution of the compounds of the present invention (final concentration of DMSO was 5%) were added to a buffer solution for kinase reaction (20 mM HEPES (pH 7.5), 2 mM dithiotheitol, 0.01% Triton X-100), and after the solution was incubated for 40 minutes at 25° C., a kinase reaction was carried out. The reaction was terminated by adding EDTA thereto so as to obtain a final concentration of 30 mM. Finally, a substrate peptide that was not phosphorylated (S) and a phosphorylated peptide (P) were separated and detected by microchannel capillary electrophoresis with a LabChip EZ Reader II (PerkinElmer, Inc.).
Broadly, the IC50 is the midpoint of a concentration-inhibition curve. In the case of `C=CC(=O)N1CCC[C@@H](n2nc(C(=O)Nc3nc4cc(OC)ccc4o3)c3c(N)ncnc32)C1` [Example 7, (R)-1-(1-acryloylpiperidin-3-yl)-4-amino-N-(5-methoxybenzo[d]oxazol-2-yl)-1H-pyrazolo[3,4-d]pyrimidine-3-carboxamide], the IC50 came to 0.457 nM. As for `CC#CC(=O)N1CCC[C@@H](n2nc(C(=O)Nc3nc4ccccc4o3)c3c(N)ncnc32)C1` [Example 22], the IC50 is 14.2 nM.

A further assay concerns A431 cells/TMD8 cells. Description: Proliferation inhibitory activity against cell lines expressing BTK and EGFR, comparison of selectivity. To be noted: cells cultured three days with compound, CELLTITER GLO. It is filed as cell-based, human. An excerpt: TMD8 cells, which are of a diffuse large B-cell lymphoma cell line expressing BTK, were suspended in RPMI1640 medium (Life Technologies Corp.) containing 10% fetal bovine serum. A431 cells, which are of an EGFR-overexpressing, highly activated human epidermoid carcinoma cell line, were suspended in DMEM, high glucose medium (Life Technologies Corp.) containing 10% fetal bovine serum. The cell suspensions were inoculated into each well of 384-well flat-bottomed microplates, and the cells were cultured for one day at 37° C. in an incubator containing 5% carbon dioxide gas. […] A DMSO solution of the test compounds was diluted with the medium used in the suspension of the each cell, and this was added to each of the wells of the cell culture plates such that the final concentration of DMSO would be 0.2%. The cells were further cultured for three days at 37° C. in an incubator containing 5% carbon dioxide gas. […] Proliferation inhibition ratio (%)=(C−T)/(C−C0)×100
T: Luminescence intensity of a well in which the test compound was added
C: Luminescence intensity of a well in which the test compound was not added
C0: Luminescence intensity of a well measured before the addition of the test compound
When a comparison is made between the cell proliferation inhibitory activity against A431 cells that depends on the EGFR proliferation signaling and the cell proliferation inhibitory activity against TMD8 cells that depends on the BTK proliferation signaling, the influence of the respective kinases at a cellular level is able to be evaluated. That is, when the “A431 cell proliferation inhibition ratio/TMD8 cell proliferation inhibition ratio” is calculated, it is contemplated that as the value of the ratio is larger, the selectivity to BTK over EGFR in the cells is higher.
In the case of `C=CC(=O)N1CCC[C@@H](n2nc(C(=O)Nc3nc4cc(Br)ccc4o3)c3c(N)ncnc32)C1` [Example 2, (R)-1-(1-acryloylpiperidin-3-yl)-4-amino-N-(5-bromobenzo[d]oxazol-2-yl)-1H-pyrazolo[3,4-d]pyrimidine-3-carboxamide], the “A431 cell proliferation inhibition ratio/TMD8 cell proliferation inhibition ratio” value was above 1033.6. Regarding `CCN(C)C/C=C/C(=O)N1CCC[C@@H](n2nc(C(=O)Nc3nc4cc(Cl)ccc4o3)c3c(N)ncnc32)C1` [Example 16, (R,E)-4-amino-N-(5-chlorobenzo[d]oxazol-2-yl)-1-(1-(4-(ethyl(methyl)amino)but-2-enoyl)piperidin-3-yl)-1H-pyrazolo[3,4-d]pyrimidine-3-carboxamide], the “A431 cell proliferation inhibition ratio/TMD8 cell proliferation inhibition ratio” value is above 16313.2. With `CCN(CC)C/C=C/C(=O)N1CCC[C@@H](n2nc(C(=O)Nc3nc4cc(Cl)ccc4o3)c3c(N)ncnc32)C1` [Example 17, (R,E)-4-amino-N-(5-chlorobenzo[d]oxazol-2-yl)-1-(1-(4-(diethylamino)but-2-enoyl)piperidin-3-yl)-1H-pyrazolo[3,4-d]pyrimidine-3-carboxamide], the “A431 cell proliferation inhibition ratio/TMD8 cell proliferation inhibition ratio” value was above 12345.7. With `CC(C)N(C)C/C=C/C(=O)N1CCC[C@@H](n2nc(C(=O)Nc3nc4cc(Cl)ccc4o3)c3c(N)ncnc32)C1` [Example 18, (R,E)-4-amino-N-(5-chlorobenzo[d]oxazol-2-yl)-1-(1-(4-(isopropyl(methyl)amino)but-2-enoyl)piperidin-3-yl)-1H-pyrazolo[3,4-d]pyrimidine-3-carboxamide], the “A431 cell proliferation inhibition ratio/TMD8 cell proliferation inhibition ratio” value is above 15625.0. As to `Nc1ncnc2c1c(C(=O)Nc1nc3cc(Cl)ccc3o1)nn2[C@@H]1CCCN(C(=O)/C=C/CN2CCCC2)C1` [Example 19, (R,E)-4-amino-N-(5-chlorobenzo[d]oxazol-2-yl)-1-(1-(4-(pyrrolidin-1-yl)but-2-enoyl)piperidin-3-yl)-1H-pyrazolo[3,4-d]pyrimidine-3-carboxamide], the “A431 cell proliferation inhibition ratio/TMD8 cell proliferation inhibition ratio” value was above 17825.3. On to `Nc1ncnc2c1c(C(=O)Nc1nc3cc(Cl)ccc3o1)nn2[C@@H]1CCCN(C(=O)/C=C/CN2CCCCC2)C1` [Example 20, (R,E)-4-amino-N-(5-chlorobenzo[d]oxazol-2-yl)-1-(1-(4-(piperidin-1-yl)but-2-enoyl)piperidin-3-yl)-1H-pyrazolo[3,4-d]pyrimidine-3-carboxamide], for which the “A431 cell proliferation inhibition ratio/TMD8 cell proliferation inhibition ratio” value is recorded as above 19120.5. For the compound `C=CC(=O)N1CCC[C@@H](n2nc(C(=O)Nc3nc4cc(C)c(C)cc4o3)c3c(N)ncnc32)C1` [Example 23, (R)-1-(1-acryloylpiperidin-3-yl)-4-amino-N-(5,6-dimethylbenzo[d]oxazol-2-yl)-1H-pyrazolo[3,4-d]pyrimidine-3-carboxamide], the “A431 cell proliferation inhibition ratio/TMD8 cell proliferation inhibition ratio” value is listed as above 10680. On the same count and under the same terms, the value for `CN(C)C/C=C/C(=O)N1CC[C@@H](n2nc(C(=O)Nc3nc4cc(Cl)ccc4o3)c3c(N)ncnc32)C1` [Example 32, (R,E)-4-amino-N-(5-chlorobenzo[d]oxazol-2-yl)-1-(1-(4-(dimethylamino)but-2-enoyl)pyrrolidin-3-yl)-1H-pyrazolo[3,4-d]pyrimidine-3-carboxamide] was above 11123.5. Consider `CCN(CC)C/C=C/C(=O)N1CC[C@@H](n2nc(C(=O)Nc3nc4cc(Cl)ccc4o3)c3c(N)ncnc32)C1` [Example 34, (R,E)-4-amino-N-(5-chlorobenzo[d]oxazol-2-yl)-1-(1-(4-(diethylamino)but-2-enoyl)pyrrolidin-3-yl)-1H-pyrazolo[3,4-d]pyrimidine-3-carboxamide], for which the “A431 cell proliferation inhibition ratio/TMD8 cell proliferation inhibition ratio” value was above 22471.9. Take `CC(C)N(C)C/C=C/C(=O)N1CC[C@@H](n2nc(C(=O)Nc3nc4cc(Cl)ccc4o3)c3c(N)ncnc32)C1` [Example 35, (R,E)-4-amino-N-(5-chlorobenzo[d]oxazol-2-yl)-1-(1-(4-(isopropyl(methyl)amino)but-2-enoyl)pyrrolidin-3-yl)-1H-pyrazolo[3,4-d]pyrimidine-3-carboxamide]: the “A431 cell proliferation inhibition ratio/TMD8 cell proliferation inhibition ratio” value was above 18691.6. For `C=CC(=O)N1CC[C@@H](n2nc(C(=O)Nc3nc4cc(C#N)ccc4o3)c3c(N)ncnc32)C1` [Example 39, (R)-1-(1-acryloylpyrrolidin-3-yl)-4-amino-N-(5-cyanobenzo[d]oxazol-2-yl)-1H-pyrazolo[3,4-d]pyrimidine-3-carboxamide], the “A431 cell proliferation inhibition ratio/TMD8 cell proliferation inhibition ratio” value was above 3510.0. The same measure, in the same setting: the value for `C=CC(=O)N1CC[C@@H](n2nc(C(=O)Nc3nc4cc(CCOC)ccc4o3)c3c(N)ncnc32)C1` [Example 40, (R)-1-(1-acryloylpyrrolidin-3-yl)-4-amino-N-(5-(2-methoxyethyl)benzo[d]oxazol-2-yl)-1H-pyrazolo[3,4-d]pyrimidine-3-carboxamide] was above 3159.6; that for `CN(C)C/C=C/C(=O)N1CC[C@@H](n2cc(C(=O)Nc3nc4cc(Cl)ccc4o3)c3c(N)ncnc32)C1` [Example 49, (R,E)-4-amino-N-(5-chlorobenzo[d]oxazol-2-yl)-7-(1-(4-(dimethylamino)but-2-enoyl)pyrrolidin-3-yl) 7H-pyrrolo[2,3-d]pyrimidine-5-carboxamide] was above 3260.5; that for `CCN(C)C/C=C/C(=O)N1CC[C@@H](n2cc(C(=O)Nc3nc4cc(Cl)ccc4o3)c3c(N)ncnc32)C1` [Example 50, (R,E)-4-amino-N-(5-chlorobenzo[d]oxazol-2-yl)-7-(1-(4-(ethyl(methyl)amino)but-2-enoyl)pyrrolidin-3-yl) 7H-pyrrolo[2,3-d]pyrimidine-5-carboxamide] was above 2767.8. For `CCN(CC)C/C=C/C(=O)N1CC[C@@H](n2cc(C(=O)Nc3nc4cc(Cl)ccc4o3)c3c(N)ncnc32)C1` [Example 51, (R,E)-4-amino-N-(5-chlorobenzo[d]oxazol-2-yl)-7-(1-(4-(diethylamino)but-2-enoyl)pyrrolidin-3-yl) 7H-pyrrolo[2,3-d]pyrimidine-5-carboxamide], the “A431 cell proliferation inhibition ratio/TMD8 cell proliferation inhibition ratio” value was above 2044.6. For the compound `CC(C)N(C)C/C=C/C(=O)N1CC[C@@H](n2cc(C(=O)Nc3nc4cc(Cl)ccc4o3)c3c(N)ncnc32)C1` [Example 52, (R,E)-4-amino-N-(5-chlorobenzo[d]oxazol-2-yl)-7-(1-(4-(isopropyl(methyl)amino)but-2-enoyl)pyrrolidin-3-yl) 7H-pyrrolo[2,3-d]pyrimidine-5-carboxamide], the “A431 cell proliferation inhibition ratio/TMD8 cell proliferation inhibition ratio” value is given as above 3617.9. `Nc1ncnc2c1c(C(=O)Nc1nc3cc(Cl)ccc3o1)cn2[C@@H]1CCN(C(=O)/C=C/CN2CCCC2)C1` [Example 53, (R,E)-4-amino-N-(5-chlorobenzo[d]oxazol-2-yl)-7-(1-(4-(pyrrolidin-1-yl)but-2-enoyl)pyrrolidin-3-yl) 7H-pyrrolo[2,3-d]pyrimidine-5-carboxamide]: the “A431 cell proliferation inhibition ratio/TMD8 cell proliferation inhibition ratio” value is above 1535.4.

Consider `Nc1ncnc2c1c(C(=O)Nc1nc3cc(Cl)ccc3o1)cn2[C@@H]1CCN(C(=O)/C=C/CN2CCCCC2)C1` [Example 54, (R,E)-4-amino-N-(5-chlorobenzo[d]oxazol-2-yl)-7-(1-(4-(piperidin-1-yl)but-2-enoyl)pyrrolidin-3-yl) 7H-pyrrolo[2,3-d]pyrimidine-5-carboxamide], for which the “A431 cell proliferation inhibition ratio/TMD8 cell proliferation inhibition ratio” value is given as above 2675.9.
